Measurements from US20050010048A1 (published 2005).
Structures can show the parent of a compound that is named as a salt.

Row | Structure (SMILES) | melting point [°C]
1 | Cc1cc(C(=O)c2cccc(Cc3ccccc3)c2)c(O)c2ncccc12 | 123 to 124
2 | O=C(c1cc(Cc2ccccc2)cc(Cn2ccnc2)c1)c1cc(Cl)c2cccnc2c1O (as salt: TFA) | 148 to 150
